Measurements published in patent publication EP4043466B1, “PRC2 INHIBITORS” (Mirati Therapeutics, Inc., priority 2018, dated 2019).

Tests used:
Karpas 422 cells = test: Karpas 422 cell viability, CTG (Cell Titre Glo) assay; assay type: cell-based, human; settings: Inhibition of proliferation of Karpas 422 cells (EZH2 Y641N), viability measured Day 4, Day 7 or Day 11, time point of the tabulated values not stated
How it was run: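 CellTiter-Glo viability IC50s taken at Day 4, Day 7 and Day 11 of continuous compound exposure (3-fold series, 10µM top, 1.5nM lowest) in RPMI/20% FBS at 37 °C. Y641N-mutant EZH2 lymphoma line seeded at 1000 cells per well; medium and compound replaced on Day 7 for Day 11 read.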

[1] = tested on: PRC2-mediated histone H3 methylation; test: Tri-Methyl Histone H3 (Lys 27) Sandwich ELISA in Pfeiffer cells: inhibition of PRC2-mediated histone H3 methylation; assay type: cell-based, human; settings: Inhibition of EZH2-mediated histone H3 trimethylation, Pfeiffer cells (EZH2 A677G), 96 hours incubation
How it was run: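 Pfeiffer DLBCL cells (EZH2 A677G mutant) treated with 3-fold serial dilutions, 1µM to 0.15 nM final, for 96 hours at 37°C. Acid (0.4M HCl) histone extracts, neutralized, assayed by H3K27me3 sandwich ELISA with HRP/TMB read at 450 nm.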

[2] = target: purified human, His-tagged PRC2 complex (Homo sapiens, UniProt O75530+Q15910); test: Hot Spot HMT assay: inhibition of PRC2 enzymatic activity (transfer of tritiated methyl from SAM to core histone, filter binding); assay type: biochemical; settings: Inhibition of PRC2-mediated enzymatic activity; 10 nM PRC2 complex, 0.05 mg/ml core histone H3, 1 uM 3H-SAM, 1 hr at 30°C
Chain of purified human, His-tagged PRC2 complex (Q15910 whole entry): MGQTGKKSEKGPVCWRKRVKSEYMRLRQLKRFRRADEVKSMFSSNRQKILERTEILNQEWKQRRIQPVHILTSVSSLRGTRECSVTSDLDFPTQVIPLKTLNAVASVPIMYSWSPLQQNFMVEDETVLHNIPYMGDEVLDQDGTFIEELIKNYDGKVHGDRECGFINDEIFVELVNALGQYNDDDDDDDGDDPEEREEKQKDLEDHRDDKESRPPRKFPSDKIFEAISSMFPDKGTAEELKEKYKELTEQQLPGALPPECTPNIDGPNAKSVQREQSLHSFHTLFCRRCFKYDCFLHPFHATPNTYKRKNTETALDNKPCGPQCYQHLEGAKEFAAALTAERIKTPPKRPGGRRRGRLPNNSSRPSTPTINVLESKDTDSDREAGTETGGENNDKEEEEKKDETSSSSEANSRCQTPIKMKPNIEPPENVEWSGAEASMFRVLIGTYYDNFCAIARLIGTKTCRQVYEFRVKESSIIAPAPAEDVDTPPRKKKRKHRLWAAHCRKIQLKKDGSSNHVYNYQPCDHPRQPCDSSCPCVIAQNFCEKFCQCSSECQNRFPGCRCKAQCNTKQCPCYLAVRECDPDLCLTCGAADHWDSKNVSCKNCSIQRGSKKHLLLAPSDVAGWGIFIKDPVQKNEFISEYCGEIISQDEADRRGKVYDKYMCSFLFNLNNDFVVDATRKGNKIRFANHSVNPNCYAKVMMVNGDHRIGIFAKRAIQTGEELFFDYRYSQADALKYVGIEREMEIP
Chain of purified human, His-tagged PRC2 complex (O75530 whole entry): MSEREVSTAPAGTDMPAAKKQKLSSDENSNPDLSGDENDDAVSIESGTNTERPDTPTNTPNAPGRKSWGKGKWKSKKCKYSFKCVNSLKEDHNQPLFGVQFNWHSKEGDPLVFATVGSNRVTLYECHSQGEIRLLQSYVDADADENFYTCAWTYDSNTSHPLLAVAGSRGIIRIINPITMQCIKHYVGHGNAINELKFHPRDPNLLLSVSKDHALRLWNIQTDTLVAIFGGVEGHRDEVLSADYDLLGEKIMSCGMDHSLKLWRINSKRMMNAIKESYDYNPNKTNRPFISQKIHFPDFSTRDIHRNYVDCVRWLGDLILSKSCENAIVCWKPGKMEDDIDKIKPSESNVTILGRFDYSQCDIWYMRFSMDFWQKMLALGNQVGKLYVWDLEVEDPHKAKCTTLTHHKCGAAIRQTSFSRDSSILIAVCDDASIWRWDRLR
Chain of purified human, His-tagged PRC2 complex (Q15022 whole entry partner): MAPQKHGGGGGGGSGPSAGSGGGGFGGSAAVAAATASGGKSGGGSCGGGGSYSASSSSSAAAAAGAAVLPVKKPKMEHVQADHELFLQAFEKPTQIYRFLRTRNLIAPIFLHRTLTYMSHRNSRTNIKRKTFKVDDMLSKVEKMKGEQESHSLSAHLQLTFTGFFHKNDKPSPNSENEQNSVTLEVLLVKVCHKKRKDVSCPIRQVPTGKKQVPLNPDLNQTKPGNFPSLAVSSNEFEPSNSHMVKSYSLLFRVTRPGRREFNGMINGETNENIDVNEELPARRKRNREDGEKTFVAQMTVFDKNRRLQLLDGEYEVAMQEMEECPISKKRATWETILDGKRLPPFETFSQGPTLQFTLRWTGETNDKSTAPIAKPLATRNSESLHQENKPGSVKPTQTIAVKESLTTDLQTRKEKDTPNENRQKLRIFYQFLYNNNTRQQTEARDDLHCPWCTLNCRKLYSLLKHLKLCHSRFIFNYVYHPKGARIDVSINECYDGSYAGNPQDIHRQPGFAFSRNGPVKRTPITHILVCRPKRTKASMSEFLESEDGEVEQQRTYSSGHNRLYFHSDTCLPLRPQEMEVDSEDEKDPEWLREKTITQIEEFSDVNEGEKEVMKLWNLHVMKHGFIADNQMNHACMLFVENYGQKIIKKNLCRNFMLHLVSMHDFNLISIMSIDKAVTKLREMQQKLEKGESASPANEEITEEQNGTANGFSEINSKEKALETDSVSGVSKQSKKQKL
Chain of purified human, His-tagged PRC2 complex (Q6ZN18 whole entry partner): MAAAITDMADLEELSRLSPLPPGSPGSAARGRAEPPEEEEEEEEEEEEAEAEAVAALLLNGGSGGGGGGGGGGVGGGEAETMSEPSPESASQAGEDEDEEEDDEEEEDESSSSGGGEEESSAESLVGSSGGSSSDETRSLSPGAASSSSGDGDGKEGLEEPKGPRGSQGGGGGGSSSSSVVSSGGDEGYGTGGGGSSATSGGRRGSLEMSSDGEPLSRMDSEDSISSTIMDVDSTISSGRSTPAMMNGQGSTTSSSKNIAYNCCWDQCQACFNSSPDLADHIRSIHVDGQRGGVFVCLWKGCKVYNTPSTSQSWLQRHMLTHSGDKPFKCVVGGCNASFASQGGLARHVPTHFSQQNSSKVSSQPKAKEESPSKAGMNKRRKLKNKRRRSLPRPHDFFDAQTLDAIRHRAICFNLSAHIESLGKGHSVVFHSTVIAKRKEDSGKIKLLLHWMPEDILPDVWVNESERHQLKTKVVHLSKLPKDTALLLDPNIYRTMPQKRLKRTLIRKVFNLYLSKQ
Chain of purified human, His-tagged PRC2 complex (Q09028 whole entry partner): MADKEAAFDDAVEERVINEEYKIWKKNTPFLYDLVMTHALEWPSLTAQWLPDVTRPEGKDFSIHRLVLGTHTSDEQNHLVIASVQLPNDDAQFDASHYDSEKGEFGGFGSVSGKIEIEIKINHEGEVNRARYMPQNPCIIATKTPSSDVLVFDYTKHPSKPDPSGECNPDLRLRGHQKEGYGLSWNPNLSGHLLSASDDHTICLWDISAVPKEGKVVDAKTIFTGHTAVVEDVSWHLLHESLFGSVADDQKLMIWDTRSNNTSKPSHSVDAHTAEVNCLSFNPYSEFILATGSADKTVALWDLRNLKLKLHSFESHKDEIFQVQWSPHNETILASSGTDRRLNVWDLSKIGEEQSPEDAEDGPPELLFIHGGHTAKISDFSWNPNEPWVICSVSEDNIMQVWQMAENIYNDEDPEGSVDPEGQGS
How it was run: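 Serial compound dilutions starting at 1.0 µM were pre-incubated 20 min at 30°C with 10 nM complex (His-EZH2, Flag-EED, His-SUZ12, His-AEBP2, His-RbAp48) and 0.05 mg/ml core H3. Reaction ran 1 hr at 30°C after adding 1 uM [3H]-SAM; scintillation counting followed filtration.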

Compound | IC50 (Karpas 422 cells; Homo sapiens) | IC50 ([1]; Homo sapiens) | IC50 [2] | IC50 (Karpas 422 cells) | IC50 [1]
Cn1nccc(-c2cnc(NCc3c(F)ccc4c3CCO4)n3cc(C#N)nc23)c1=O [Example 194, 5-(((5-fluoro-2,3-dihydrobenzofuran-4-yl)methyl)amino)-8-(2-methyl-3-oxo-2,3-dihydropyridazin-4-yl)imidazo[1,2-c]pyrimidine-2-carbonitrile] | ≤ 250 nM | 100 to 500 nM | 100 to 500 nM | – | –
Cc1cc(-c2cnc(NCc3c(F)ccc4c3CCO4)n3cc(C#N)nc23)ccc1CN(C)C [Example 200, 8-(4-((dimethylamino)methyl)-3-methylphenyl)-5-(((5-fluoro-2,3-dihydrobenzofuran-4-yl)methyl)amino)imidazo[1,2-c]pyrimidine-2-carbonitrile] | ≤ 250 nM | 100 to 500 nM | 100 to 500 nM | – | –
Cc1ccc(-c2cnc(NCc3c(F)ccc4c3CCO4)n3cc(C#N)nc23)c(C)c1 [Example 192, 8-(2,4-dimethylphenyl)-5-(((5-fluoro-2,3-dihydrobenzofuran-4-yl)methyl)amino)imidazo[1,2-c]pyrimidine-2-carbonitrile] | > 500 nM | > 500 nM | > 500 nM | – | –
N#Cc1cn2c(NCc3c(F)ccc4c3CCO4)ncc(-c3cnn(CC4CCOC4)c3)c2n1 (stereo not drawn) [compound 154] | 250 to 500 nM | 100 to 500 nM | 100 to 500 nM | – | –
CCOP(=O)(OCC)c1ccc(-c2cnc(NCc3c(F)ccc4c3CCO4)n3cc(C#N)nc23)cc1 [Example 164, diethyl (4-(2-cyano-5-(((5-fluoro-2,3-dihydrobenzofuran-4-yl)methyl)amino)imidazo[1,2-c]pyrimidin-8-yl)phenyl)phosphonate] | ≤ 250 nM | ≤ 100 nM | < 100 nM | – | –
Cc1c(C#N)cccc1-c1cnc(NCc2c(F)ccc3c2CCO3)n2cc(C#N)nc12 [Example 176, 8-(3-cyano-2-methylphenyl)-5-(((5-fluoro-2,3-dihydrobenzofuran-4-yl)methyl)amino)imidazo[1,2-c]pyrimidine-2-carbonitrile] | 250 to 500 nM | 100 to 500 nM | < 100 nM | – | –
N#Cc1cn2c(NCc3c(F)ccc4c3CCO4)ncc(-c3ccc(CN4CCOCC4)cc3)c2n1 [Example 75, 5-(((5-fluoro-2,3-dihydrobenzofuran-4-yl)methyl)amino)-8-(4-(morpholinomethyl)phenyl)imidazo[1,2-c]pyrimidine-2-carbonitrile] | ≤ 250 nM | 100 to 500 nM | < 100 nM | – | –
N#Cc1cn2c(NCc3c(F)ccc4c3CCO4)ncc(-c3ccc(-c4nnn[nH]4)cc3)c2n1 [Example 190, 8-(4-(1H-tetrazol-5-yl)phenyl)-5-(((5-fluoro-2,3-dihydrobenzofuran-4-yl)methyl)amino)imidazo[1,2-c]pyrimidine-2-carbonitrile] | > 500 nM | > 500 nM | < 100 nM | – | –
CN(C)Cc1ccc(-c2cnc(NCc3c(F)ccc4c3CCO4)n3cc(C#N)nc23)c(C#N)c1 [Example 198, 8-(2-cyano-4-((dimethylamino)methyl)phenyl)-5-(((5-fluoro-2,3-dihydrobenzofuran-4-yl)methyl)amino)imidazo[1,2-c]pyrimidine-2-carbonitrile] | ≤ 250 nM | 100 to 500 nM | < 100 nM | – | –
Cc1ccc(-c2cnc(NCc3c(F)ccc4c3CCO4)n3cc(C#N)nc23)cc1 [Example 175, 5-(((5-fluoro-2,3-dihydrobenzofuran-4-yl)methyl)amino)-8-(p-tolyl)imidazo[1,2-c]pyrimidine-2-carbonitrile] | 250 to 500 nM | > 500 nM | 100 to 500 nM | – | –

Second part, the compound after the results:

IC50 (Karpas 422 cells; Homo sapiens) | IC50 ([1]; Homo sapiens) | IC50 [2] | IC50 (Karpas 422 cells) | IC50 [1] | Compound
≤ 250 nM | 100 to 500 nM | < 100 nM | – | – | CN(C)C1(c2ccc(-c3cnc(NCc4c(F)ccc5c4CCO5)n4cc(C#N)nc34)cc2)CC1 [Example 171, 8-(4-(1-(dimethylamino)cyclopropyl)phenyl)-5-(((5-fluoro-2,3-dihydrobenzofuran-4-yl)methyl)amino)imidazo[1,2-c]pyrimidine-2-carbonitrile]
≤ 250 nM | 100 to 500 nM | < 100 nM | – | – | Cc1ncc(F)cc1-c1cnc(NCc2c(F)ccc3c2CCO3)n2cc(C#N)nc12 [Example 62, 5-(((5-fluoro-2,3-dihydrobenzofuran-4-yl)methyl)amino)-8-(5-fluoro-2-methylpyridin-3-yl)imidazo[1,2-c]pyrimidine-2-carbonitrile]
– | – | < 100 nM | ≤ 250 nM | 100 to 500 nM | 5-(((5-fluoro-2,3-dihydrobenzofuran-4-yl)methyl)amino)-8-(2-methyl-6-morpholinopyridin-3-yl)imidazo[1,2-c]pyrimidine-2-carbonitrile [Example 56]
≤ 250 nM | ≤ 100 nM | < 100 nM | – | – | N#Cc1cn2c(NCc3c(F)ccc4c3CCO4)ncc(-c3ccc(CN4CCCC4)cc3)c2n1 [Example 74, 5-(((5-fluoro-2,3-dihydrobenzofuran-4-yl)methyl)amino)-8-(4-(pyrrolidin-1 - ylmethyl)phenyl)imidazo[1,2-c]pyrimidine-2-carbonitrile]
≤ 250 nM | ≤ 100 nM | < 100 nM | – | – | Cc1c(-c2cnc(NCc3c(F)ccc4c3CCO4)n3cc(C#N)nc23)cnc(CN(C)C)c1F [Example 233, 8-(6-((dimethylamino)methyl)-5-fluoro-4-methylpyridin-3-yl)-5-(((5-fluoro-2,3-dihydrobenzofuran-4-yl)methyl)amino)imidazo[1,2-c]pyrimidine-2-carbonitrile]
≤ 250 nM | 100 to 500 nM | < 100 nM | – | – | CN1CCOCC1c1ccc(-c2cnc(NCc3c(F)ccc4c3CCO4)n3cc(C#N)nc23)cc1 (stereo not drawn) [Example 227, 5-(((5-fluoro-2,3-dihydrobenzofuran-4-yl)methyl)amino)-8-(4-(4-methylmorpholin-3-yl)phenyl)imidazo[1,2-c]pyrimidine-2-carbonitrile]
250 to 500 nM | 100 to 500 nM | < 100 nM | – | – | N#Cc1cn2c(NCc3c(F)ccc4c3CCO4)ncc(-c3ccccc3C#N)c2n1 [Example 187, 8-(2-cyanophenyl)-5-(((5-fluoro-2,3-dihydrobenzofuran-4-yl)methyl)amino)imidazo[1,2-c]pyrimidine-2-carbonitrile]
≤ 250 nM | ≤ 100 nM | < 100 nM | – | – | CN(C)Cc1ccc(-c2cnc(NCc3c(F)ccc4c3CCO4)n3cc(C#N)nc23)c(F)c1 [Example 61, 8-(4-((dimethylamino)methyl)-2-fluorophenyl)-5-(((5-fluoro-2,3-dihydrobenzofuran-4-yl)methyl)amino)imidazo[1,2-c]pyrimidine-2-carbonitrile]
≤ 250 nM | 100 to 500 nM | < 100 nM | – | – | CN1CCc2cc(-c3cnc(NCc4c(F)ccc5c4CCO5)n4cc(C#N)nc34)ccc2C1=O [Example 168, 5-(((5-fluoro-2,3-dihydrobenzofuran-4-yl)methyl)amino)-8-(2-methyl-1-oxo-1,2,3,4-tetrahydroisoquinolin-6-yl)imidazo[1,2-c]pyrimidine-2-carbonitrile]
≤ 250 nM | ≤ 100 nM | < 100 nM | – | – | Cc1cc(-c2cnc(NCc3c(F)ccc4c3CCO4)n3cc(C#N)nc23)n(C)n1 [Example 86, 8-(1,3-dimethyl-1H-pyrazol-5-yl)-5-(((5-fluoro-2,3-dihydrobenzofuran-4-yl)methyl)amino)imidazo[1,2-c]pyrimidine-2-carbonitrile]
≤ 250 nM | ≤ 100 nM | < 100 nM | – | – | Cc1c(-c2cnc(NCc3c(F)ccc4c3CCO4)n3cc(C#N)nc23)ccc(CN(C)C)c1F [Example 85, 8-(4-((dimethylamino)methyl)-3-fluoro-2-methylphenyl)-5-(((5-fluoro-2,3-dihydrobenzofuran-4-yl)methyl)amino)imidazo[1,2-c]pyrimidine-2-carbonitrile]
≤ 250 nM | 100 to 500 nM | < 100 nM | – | – | N#Cc1cn2c(NCc3c(F)ccc4c3CCO4)ncc(-c3ccncn3)c2n1 [Example 57, 5-(((5-fluoro-2,3-dihydrobenzofuran-4-yl)methyl)amino)-8-(pyrimidin-4-yl)imidazo[1,2-c]pyrimidine-2-carbonitrile]
≤ 250 nM | 100 to 500 nM | < 100 nM | – | – | [2H]C1Oc2ccc(F)c(C([2H])([2H])Nc3ncc(-c4ccc(CN(C)C)cc4C)c4nc(C#N)cn34)c2C1[2H] (stereo not drawn) [Example 223, 8-(4-((dimethylamino)methyl)-2-methylphenyl)-5-(((5-fluoro-2,3-dihydrobenzofuran-4-yl-2,3-d2)methyl-d2)amino)imidazo[1,2-c]pyrimidine-2-carbonitrile]
≤ 250 nM | ≤ 100 nM | < 100 nM | – | – | CN(C)C(=O)c1cc(F)c(-c2cnc(NCc3c(F)ccc4c3CCO4)n3cc(C#N)nc23)cc1F [Example 38, 4-(2-cyano-5-(((5-fluoro-2,3-dihydrobenzofuran-4-yl)methyl)amino)imidazo[1,2-c]pyrimidin-8-yl)-2,5-difluoro-N,N-dimethylbenzamide]
